“And” between values parts separate entries of the source, which are not always exact repeats. Equal entries are not always repeated.
Tested on: 935938-334-R-J1-PDC complex spheroid viability
Test: Anticancer human tumor 935938-334-R-J1-PDC patient-derived small intestine adenocarcinoma cell line growth inhibition [POLQ]
Details: for viability, T/C: stronger effect = lower value
Procedure: Multicellular complex tumor spheroid response to Polymerase (POL) inhibitors (novobiocin, ART-558, RP6685) in combination with a variety of drugs and investigational agents in selected tumor cell lines
The POL inhibitors (novobiocin, ART-558, and RP6685) were evaluated both individually and in combination with standard of care and investigational anticancer small molecules within a complex spheroid model of solid tumors. . Complex spheroids include a stromal component modeled by human endothelial cells (HUVEC) and fibroblasts modeled by human mesenchymal stem cells (MSCs). The concentration ranges selected for each drug and investigational agent were based upon clinically achievable concentrations if the clinical Cmax of the agent was known.
Compounds. The drugs and investigational agents: novobiocin (NSC847541), ART-558 (NSC835418), RP-6685 (NSC848927), peposertib (NSC802822), ceralasertib (NSC780249), elimusertib (NSC800525), camonsertib (NSC841442), AZD-1390 (NSC803789), olaparib (NSC753686), talazoparib (NSC767125), rucaparib (NSC756644), sotorasib (NSC818433), MRTX-1133 (NSC836407), SN-38 (NSC673596), topotecan (NSC609699), epotoside (NSC141540), doxorubicin (NSC123127), gemcitabine (NSC613327), 5-fluorouracil (NSC19893), paclitaxel (NSC125973), vemurafenib (NSC761431), MSA-2 (NSC828583), SN-011 (NSC837082), adavosertib (NSC754352), prexasertib (NSC758257), carboplatin (NSC241240) and oxaliplatin (NSC266046), were obtained from the National Cancer Institute (NCI) Developmental Therapeutics Program Chemical Repository (21). The FDA-approved anticancer drug set is available from the Developmental Therapeutics Program at https://dtp.cancer.gov/organization/dscb/obtaining/. […] The stock solutions were prepared in dimethyl sulfoxide (DMSO, Sigma-Aldrich, St. Louis, MO, cat. D2650), except for the platinum compounds which were prepared in saline (Quality Biological, Gaithersburg, MD, cat. 114-055-101), at 800-fold the tested concentration and stored at -70 degrees C prior to their use. All drugs and investigational agents were tested over a range starting from a high concentration at or near the clinical Cmax and decreasing in half-log increments. If the clinical Cmax for an agent had not been determined, the highest concentration tested was 10 microM, except for SN-38, which was tested at a high concentration of 1 microM.
Cell Culture. All cells were maintained in an incubator at 37 degrees C and 5% CO2 with 95% humidity. The PDC lines were cultured according to standard operating procedures established by the NCI PDMR (https://pdmr.cancer.gov). Table 3 of the manuscript, lists the cell lines along with the number of the three cell types plated to form the mct-spheroids and media for tumor cell growth. After thawing, all PDC lines, except 997537-175-T-J1-PDC and 415267-285-R-J2-PDC, were cultured in Matrigel-coated flasks prepared with a working solution of 1X Ham's F-12 nutrient mix, without supplementation (Thermo Fisher Scientific, cat. 11765054), 100 U/mL penicillin-streptomycin (Thermo Fisher Scientific, cat. 15140122), and 2.5% Matrigel (Corning Inc., Corning, NY, cat. 354248) for the first three passages. The two PDC lines 997537-175-T-J1-PDC and 415267-285-R-J2-PDC were cultured on uncoated flasks. The 857933-349-R-J2-PDC line was cultured in 6C/Colon 1B media containing advanced DMEM/F-12 (Thermo Fisher Scientific, cat. 12634028), 10 mM HEPES (Thermo Fisher Scientific, cat. 15630080), 1X GlutaMAX supplement (Thermo Fisher Scientific, cat. 35050061), 0.1 mg/mL primocin (InvivoGen, San Diego, CA, cat. ant-pm-2), 10% defined fetal bovine serum, heat inactivated (HyClone Laboratories Inc., Logan, UT, cat. SH30070.03HI), 50% L-WRN conditioned media (ATCC, cat. CRL-3276), 1.25 mM N-Acetyl-L-cysteine (Sigma-Aldrich, cat. A9165), 10 mM nicotinamide (Sigma-Aldrich, cat. N0636), 1X B-27 supplement (Thermo Fisher Scientific, cat. 17504044), 1X N-2 supplement (Thermo Fisher Scientific, cat. […]
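Further: spheroids exposed to drugs for seven days before viability read.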
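Wherever viability, T/C is given: 100% = DMSO vehicle control wells.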

What does the source list for `CNCc1ccc(-c2[nH]c3cc(F)cc4c3c2CCNC4=O)cc1`?
viability, T/C (compound 0.0316 µM): 114% and 107% and 98.2%; viability, T/C (compound 0.1 µM): 119% and 78.9% and 107%; viability, T/C (compound 0.316 µM): 92.8% and 87.7% and 94.1%; viability, T/C (compound 1 µM): 88% and 96% and 108%; viability, T/C (compound 3.16 µM): 94% and 139% and 114%; viability, T/C (compound 10 µM): 109% and 116% and 90.9%; IC50 (curve of compound): > 10 µM

For `COC1C(OC(N)=O)C(O)C(Oc2ccc3c(O)c(NC(=O)c4ccc(O)c(CC=C(C)C)c4)c(=O)oc3c2C)OC1(C)C` (stereo not given), which IC50 (compound alone, run of 11/27/2023) is on record?
The IC50 was > 10 µM.

`CCCS(=O)(=O)Nc1ccc(F)c(C(=O)c2c[nH]c3ncc(-c4ccc(Cl)cc4)cc23)c1F` + COC1C(OC(N)=O)C(O)C(Oc2ccc3c(O)c(NC(=O)c4ccc(O)c(CC=C(C)C)c4)c(=O)oc3c2C)OC1(C)C was tested. Which IC50 (curve of first compound, second compound 0.0316 µM) did it give?
The IC50 was 9.13 µM.

What about the IC50 (curve of first compound, second compound 0.1 µM) of the same molecule?
The IC50 was 8.46 µM.

And the IC50 (curve of first compound, second compound 0.316 µM)?
Its IC50 is 9.27 µM.

What about the IC50 (curve of first compound, second compound 1 µM) of the same molecule?
The IC50 was 8.52 µM.

What about the IC50 (curve of first compound, second compound 3.16 µM) of the same molecule?
The IC50 was 9.73 µM.

What about the IC50 (curve of first compound, second compound 10 µM) of the same molecule?
The IC50 was 9.94 µM.

And the viability, T/C (second compound 0.0316 µM, first compound 0.0316 µM)?
Its viability, T/C is 96.1%.

And the viability, T/C (second compound 0.0316 µM, first compound 0.1 µM)?
Its viability, T/C is 142%.

And the viability, T/C (second compound 0.0316 µM, first compound 0.316 µM)?
Its viability, T/C is 118%.

And the viability, T/C (second compound 0.0316 µM, first compound 1 µM)?
Its viability, T/C is 111%.

What about the viability, T/C (second compound 0.0316 µM, first compound 3.16 µM) of the same molecule?
Its viability, T/C is 101%.

What about the viability, T/C (second compound 0.0316 µM, first compound 10 µM) of the same molecule?
Its viability, T/C is 45.4%.

What about the viability, T/C (second compound 0.1 µM, first compound 0.0316 µM) of the same molecule?
Its viability, T/C is 113%.

What about the viability, T/C (second compound 0.1 µM, first compound 0.1 µM) of the same molecule?
The viability, T/C was 80.5%.

What about the viability, T/C (second compound 0.1 µM, first compound 0.316 µM) of the same molecule?
The viability, T/C was 103%.

What about the viability, T/C (second compound 0.1 µM, first compound 1 µM) of the same molecule?
Its viability, T/C is 110%.

And the viability, T/C (second compound 0.1 µM, first compound 3.16 µM)?
The viability, T/C was 134%.

What about the viability, T/C (second compound 0.1 µM, first compound 10 µM) of the same molecule?
The viability, T/C was 40.2%.

And the viability, T/C (second compound 0.316 µM, first compound 0.0316 µM)?
Its viability, T/C is 73.6%.

What about the viability, T/C (second compound 0.316 µM, first compound 0.1 µM) of the same molecule?
Its viability, T/C is 98.8%.

And the viability, T/C (second compound 0.316 µM, first compound 0.316 µM)?
Its viability, T/C is 119%.

What about the viability, T/C (second compound 0.316 µM, first compound 1 µM) of the same molecule?
Its viability, T/C is 121%.

And the viability, T/C (second compound 0.316 µM, first compound 3.16 µM)?
Its viability, T/C is 125%.

What about the viability, T/C (second compound 0.316 µM, first compound 10 µM) of the same molecule?
The viability, T/C was 45.9%.

And the viability, T/C (second compound 1 µM, first compound 0.0316 µM)?
Its viability, T/C is 116%.

What about the viability, T/C (second compound 1 µM, first compound 0.1 µM) of the same molecule?
The viability, T/C was 117%.

What about the viability, T/C (second compound 1 µM, first compound 0.316 µM) of the same molecule?
Its viability, T/C is 101%.

What about the viability, T/C (second compound 1 µM, first compound 1 µM) of the same molecule?
The viability, T/C was 131%.

What about the viability, T/C (second compound 1 µM, first compound 3.16 µM) of the same molecule?
The viability, T/C was 111%.

What about the viability, T/C (second compound 1 µM, first compound 10 µM) of the same molecule?
Its viability, T/C is 40.1%.

And the viability, T/C (second compound 3.16 µM, first compound 0.0316 µM)?
The viability, T/C was 114%.

And the viability, T/C (second compound 3.16 µM, first compound 0.1 µM)?
The viability, T/C was 107%.

What about the viability, T/C (second compound 3.16 µM, first compound 0.316 µM) of the same molecule?
Its viability, T/C is 120%.

And the viability, T/C (second compound 3.16 µM, first compound 1 µM)?
Its viability, T/C is 147%.

What about the viability, T/C (second compound 3.16 µM, first compound 3.16 µM) of the same molecule?
Its viability, T/C is 111%.

What about the viability, T/C (second compound 3.16 µM, first compound 10 µM) of the same molecule?
Its viability, T/C is 48.7%.

And the viability, T/C (second compound 10 µM, first compound 0.0316 µM)?
The viability, T/C was 104%.

And the viability, T/C (second compound 10 µM, first compound 0.1 µM)?
Its viability, T/C is 97.6%.

And the viability, T/C (second compound 10 µM, first compound 0.316 µM)?
The viability, T/C was 130%.

And the viability, T/C (second compound 10 µM, first compound 1 µM)?
The viability, T/C was 129%.

What about the viability, T/C (second compound 10 µM, first compound 3.16 µM) of the same molecule?
The viability, T/C was 127%.

And the viability, T/C (second compound 10 µM, first compound 10 µM)?
The viability, T/C was 49.6%.

— PubChem BioAssay AID1963829 (Molecular Pharmacology Branch, DTP, NCI, 2024)
